In ChEMBL document CHEMBL3860089, “Design, synthesis, and biological evaluation of α-hydroxyacyl-AMS inhibitors of amino acid adenylation enzymes” (Bioorg Med Chem Lett, 2016):

Tests used:
[1] = biological target: T1, Yersiniabactin biosynthetic protein (Yersinia pestis, UniProt A0A2S9PH42)
[2] = Inhibition of aminoacyl tRNA synthetase in T7 coupled rabbit reticulocyte lysate assessed as reduction in transcription/translation of luciferase template DNA propagated in Escherichia coli DH5alpha after 90 mins; design: species or system Oryctolagus cuniculus
[3] = biological target: T1, Yersiniabactin biosynthetic protein; details: read-out: Ki(app)
[4] = Drug uptake in Bacillus subtilis ATCC 6051 at 100 uM by LC-MS/Ms analysis; format: ADME
[5] = Drug uptake in Escherichia coli ATCC 25922 at 100 uM by LC-MS/Ms analysis; format: ADME; details: escherichia coli atcc 25922, 100 µM
[6] = Drug uptake in Mycobacterium smegmatis ATCC 700084 at 100 uM by LC-MS/Ms analysis; format: ADME; details: mycolicibacterium smegmatis

T1 sequence (A0A2S9PH42 whole entry): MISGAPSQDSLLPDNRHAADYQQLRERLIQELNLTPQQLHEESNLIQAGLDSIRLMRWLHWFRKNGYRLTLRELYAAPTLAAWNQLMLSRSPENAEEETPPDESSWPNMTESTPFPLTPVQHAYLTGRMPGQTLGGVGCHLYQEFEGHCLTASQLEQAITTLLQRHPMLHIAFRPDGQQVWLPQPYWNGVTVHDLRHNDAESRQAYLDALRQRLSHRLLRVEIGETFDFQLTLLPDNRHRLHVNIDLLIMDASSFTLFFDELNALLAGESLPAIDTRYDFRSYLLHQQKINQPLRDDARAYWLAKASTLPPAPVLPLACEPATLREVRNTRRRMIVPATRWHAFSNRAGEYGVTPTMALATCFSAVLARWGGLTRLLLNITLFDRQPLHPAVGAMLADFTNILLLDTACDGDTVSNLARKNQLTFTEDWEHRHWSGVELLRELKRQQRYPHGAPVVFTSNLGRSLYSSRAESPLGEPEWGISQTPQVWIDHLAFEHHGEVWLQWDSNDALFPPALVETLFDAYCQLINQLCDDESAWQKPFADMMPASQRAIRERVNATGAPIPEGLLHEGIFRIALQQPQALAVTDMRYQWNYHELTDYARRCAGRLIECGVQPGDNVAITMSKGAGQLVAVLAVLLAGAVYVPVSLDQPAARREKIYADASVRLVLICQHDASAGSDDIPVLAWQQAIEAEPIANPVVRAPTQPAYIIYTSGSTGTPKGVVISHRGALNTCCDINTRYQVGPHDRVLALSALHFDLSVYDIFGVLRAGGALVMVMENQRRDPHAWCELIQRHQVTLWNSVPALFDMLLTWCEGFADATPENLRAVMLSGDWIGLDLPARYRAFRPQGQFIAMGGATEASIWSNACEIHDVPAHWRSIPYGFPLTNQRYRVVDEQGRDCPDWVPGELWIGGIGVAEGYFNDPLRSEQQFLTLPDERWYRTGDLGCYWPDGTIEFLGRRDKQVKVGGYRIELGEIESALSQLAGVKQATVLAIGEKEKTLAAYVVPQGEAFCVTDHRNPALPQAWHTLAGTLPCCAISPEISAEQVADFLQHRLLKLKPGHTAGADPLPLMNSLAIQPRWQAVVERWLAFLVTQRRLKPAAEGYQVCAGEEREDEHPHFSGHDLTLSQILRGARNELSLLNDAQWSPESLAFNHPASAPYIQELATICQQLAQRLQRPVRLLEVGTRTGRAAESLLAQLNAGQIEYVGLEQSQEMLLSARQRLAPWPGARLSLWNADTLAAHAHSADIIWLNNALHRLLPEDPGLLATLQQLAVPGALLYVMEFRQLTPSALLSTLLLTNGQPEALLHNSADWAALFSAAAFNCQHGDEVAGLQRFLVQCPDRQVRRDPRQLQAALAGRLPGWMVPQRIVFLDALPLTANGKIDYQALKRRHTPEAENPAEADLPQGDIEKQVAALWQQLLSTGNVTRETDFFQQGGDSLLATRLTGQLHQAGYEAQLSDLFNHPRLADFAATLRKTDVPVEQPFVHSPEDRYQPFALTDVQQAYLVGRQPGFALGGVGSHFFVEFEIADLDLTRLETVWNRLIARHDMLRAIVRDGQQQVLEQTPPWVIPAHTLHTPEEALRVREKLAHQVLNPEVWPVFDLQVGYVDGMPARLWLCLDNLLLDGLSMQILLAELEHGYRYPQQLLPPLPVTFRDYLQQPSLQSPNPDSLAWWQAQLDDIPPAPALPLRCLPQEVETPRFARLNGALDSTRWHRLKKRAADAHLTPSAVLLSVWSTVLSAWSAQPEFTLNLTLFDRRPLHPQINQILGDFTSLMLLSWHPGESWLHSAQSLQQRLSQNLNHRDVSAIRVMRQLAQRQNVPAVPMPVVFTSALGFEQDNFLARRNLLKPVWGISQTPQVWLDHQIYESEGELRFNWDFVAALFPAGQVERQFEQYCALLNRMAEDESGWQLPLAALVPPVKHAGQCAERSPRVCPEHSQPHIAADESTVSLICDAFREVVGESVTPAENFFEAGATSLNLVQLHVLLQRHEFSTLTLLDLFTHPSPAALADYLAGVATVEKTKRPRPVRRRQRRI

| Compound | IC50 [1] [µM] | IC50 [2] [µM] | Ki [3] [µM] | Drug uptake ([4]; BLD = below limit of detection) | Drug uptake ([5]; BLD = below limit of detection) | Drug uptake ([6]; BLD = below limit of detection) | Drug uptake [4] [µM] | Drug uptake [5] [µM] | Drug uptake [6] [µM] |
| --- | --- | --- | --- | --- | --- | --- | --- | --- | --- |
| Nc1ncnc2c1nc1n2[C@@H]2O[C@H](COS(=O)(=O)NC(=O)[C@@H](N)CCC1)[C@@H](O)[C@H]2O | 0.34 | > 250 | 1.7 | – | – | – | – | – | – |
| C[C@H](N)C(=O)NS(=O)(=O)OC[C@H]1O[C@@H](n2cnc3c(N)ncnc32)[C@H](O)[C@@H]1O [ALASA] | 1.15 | 0.118 to 0.16 | 2.5 | Bld | Bld | Bld | – | – | – |
| Nc1ncnc2c1nc1n2[C@@H]2O[C@H](COS(=O)(=O)NC(=O)[C@@H](O)CCC1)[C@@H](O)[C@H]2O | > 1000 | > 250 | – | – | – | – | – | – | – |
| Nc1ncnc2c1ncn2[C@@H]1O[C@H](COS(=O)(=O)NC(=O)[C@@H](O)CS)[C@@H](O)[C@H]1O | 16.5 | 222 | – | – | – | – | – | – | – |
| Nc1ncnc2c1ncn2[C@@H]1O[C@H](COS(=O)(=O)NC(=O)[C@@H](N)CS)[C@@H](O)[C@H]1O | 0.04 | 3.27 | 0.24 | – | – | – | – | – | – |
| C[C@H](O)C(=O)NS(=O)(=O)OC[C@H]1O[C@@H](n2cnc3c(N)ncnc32)[C@H](O)[C@@H]1O | > 1000 | 166 | – | – | – | – | 28 to 53 | 28 to 53 | 28 to 53 |
